Laboratory results as given in patent US9750805B2, “Calcium flux agonists and methods therefor” (Nant Holdings IP, LLC, priority 2012, dated 2017).

How the values were obtained:
Format in all cases: cell-based, human
[1] = test system: TLR (TLR2, TLR4, TLR5, TLR9) and NOD (NOD1, NOD2) family members; assay: IL-8 production with TLR and NOD ligands plus suboptimal calcium flux agonist (FIGS. 3A-3E); conditions: suboptimal doses: 20 nM thapsigargin, 316 nM A23187, 1 μM ionomycin, 10 μM cyclopiazonic acid, 31.6 μM DBHQ
Protocol: To investigate if that observation was also true for other pattern recognition receptors, and especially for TLR and NOD receptors and other ligands, the inventors tested numerous TLR and NOD receptors and various ligands.
The doses used in this experiment were 20 nM for thapsigargin, 316 nM for A23187, 1 μM for ionomycin, 10 μM for cyclopiazonic acid, and 31.6 μM for DBHQ.
Thus, a clear pattern of adjuvant activity of calcium flux agonists on the immune response, and especially on IL-8 production and NF-κB signaling is evident where the immune response is associated with a TLR- or NOD-mediated event.

[2] = test system: NF-κB THP-1 cells; assay: NF-κB luciferase reporter synergy with TLR2 ligand and effect of Ca2+ modulating compounds (FIG. 4); conditions: FIG. 4; calcium flux agonist plus TLR ligand
Protocol: For example, human promonocytic THP-1 cells were incubated in the presence or absence of a suboptimal dose of the TLR2 ligand Pam2CSK4 and compared to similarly treated cells which also received suboptimal doses of ionophore (here: A23187 and ionomycin). […] In another example, NF-κB THP-1 cells (a THP-1-derived transfectant line harboring an NF-κB-driven luciferase expression cassette) were cultivated in the presence or absence of a suboptimal dose of the TLR2 ligand Pam2CSK4 and compared to similarly treated cells that also received suboptimal doses of various SERCA inhibitors.
The inventors further investigated if the nature of calcium flux was of significance as increased intracellular calcium may have different origins. To that effect, the inventors used various calcium signaling modulators to investigate the nature of the calcium flux and contribution. As can be readily taken from the data shown, extracellular calcium flux into the cell was critical for synergistic amplification of calcium signaling. More specifically, FIG. 4 illustrates the effects of different Ca^2+ modulating compounds on synergy with respect to NF-κB activation.

[3] = test system: κB-LUC THP-1 reporter cells; assay: κB-LUC THP-1 reporter response to S. aureus conditioned/spent media (FIGS. 5B-5E)
Description: Briefly, a culture of logarithmically dividing S. aureus was washed three times with RPMI 1640 (Cellgro). Concurrently, THP-1 κB-LUC THP-1's (THP-1 cells containing the stable integration of a NF-κB luciferase reporter gene) cultured in RPMI 1640 (Cellgro) supplemented with 10% FBS (Thermo HyClone, Waltham Mass.) and 1% penicillin-streptomycin-fungizone (Thermo HyClone) were washed three times with RPMI 1640 (Cellgro) and transferred to the bottom compartment of a 24-well 0.4 μm cutoff transwell plate (Corning) at a concentration of 1.2 million/mL. Dilutions of the washed S. aureus culture were then added to the top chamber of the transwell system at the indicated initial multiplicities of infection (MOI). The cells were incubated for 18 hours at 37° C. at which time aliquots of 60,000 cells were transferred to wells in a 384-well white bottom plate (Thermo). To evaluate luciferase gene expression, Bright-Glo Luciferase Assay Reagent (Promega) was added to each well and the plates were analyzed for luciferase activity using the Perkin Elmer TopCount NXT system (Perkin Elmer).
To determine whether the recognition of S. aureus-produced products could be further augmented through modulation of calcium flux, κB-LUC THP-1 reporter cells were incubated in the presence of a 1:100 dilution (V/V) of sterile filtered S. aureus conditioned (i.e. spent) or unused sterile media and treated with a suboptimal dose (20 nM) of thapsigargin or dimethyl sulfoxide (DMSO) vehicle control as described above. Briefly, conditioned media was produced by culturing S. aureus in RPMI with 10% fetal bovine serum overnight in a shaking incubator at 37° C. following which the bacteria were pelleted by centrifugation and the supernatants filter-sterilized using a 0.2 μm filter (VWR Radnor PA). The κB-LUC THP-1 cells were incubated in the presence of the conditioned/spent media for 18 hours prior to luciferase assay as described above.

| SMILES | effect on IL-8 production with TLR and NOD ligands [1] | effect of Ca2+ modulating compound on synergy with respect to NF-κB activation [2] | effect on calcium flux-induced synergy [3] |
| --- | --- | --- | --- |
| CC(C)(C)c1cc(O)c(C(C)(C)C)cc1O [DBHQ, 2,5-di-tert-butylhydroquinone] | synergistic effect | – | – |
| O=C(O)CN(CCOCCOCCN(CC(=O)O)CC(=O)O)CC(=O)O [EGTA] | – | reduces synergistic signal down to levels in line with what is achieved by TLR ligand alone | inhibited |
| CN([C@@H](Cc1ccc(OS(=O)(=O)c2cccc3cnccc23)cc1)C(=O)N1CCN(c2ccccc2)CC1)S(=O)(=O)c1cccc2cnccc12 [KN-62] | – | does not alter reporter gene expression levels | – |
